Results published in patent US7119208B2, “Anti-sickling agents” (Virginia Commonwealth University, priority 2003, dated 2006).
Several values for one entry are separate records, joined by “and”; a condition that tells them apart may be missing. Identical values can stand only once. Entries after “also recorded” stand apart in the source; their conditions may differ.

Assays:
SS cells [1] = assay: Antisickling studies with homozygous sickle red blood cells; assay type: cell-based, human; settings: for predicted antisickling activities: not determined, predicted from structure-activity relationships
AA cells = assay: Oxygen equilibrium studies with normal whole blood; assay type: cell-based, human; settings: for P50: AA cells 40% hematocrit; for n50 (Hill coefficient at 50% saturation in the presence of compound) / ΔP50 = P50d − P50c / P50d (value in the presence of compound): thiophene aldehydes, 5 mM, whole blood; for P50d (value in the presence of compound): repeat measurements; for effect on the OEC of whole blood: normal adult whole blood, multi-point tonometry, in vitro
Hb [2] = target: T1, Hb (Homo sapiens, UniProt P69905); settings: Schiff base with N-terminal Val1 of T state Hb; cited from earlier work
HbS [3] = target: T2, HbS (Homo sapiens, UniProt P68871+P69905, E7V); assay: Oxygen equilibrium analysis of hemolysate from compound-treated SS cells; assay type: cell-based; settings: hemolysate after incubation of 5 mM compound with SS cells; for Hemolysate ΔP50: treated minus control
T2 construct: The compound-treated SS cells obtained in the preceding experiment (oxygen equilibrium studies with SS cells) were hemolyzed; endogenous in cells; host or cells: homozygous sickle red blood (SS) cells from patients with SCD; hemolysate of the compound-treated cells

SS cells [4] = assay: Effect of compounds on homozygous sickle red blood cell size (MCV); assay type: cell-based, human; settings: for changes in cell volumes of SS cells: 1, 2, and 5 mM compound
Description: To study the effect of the compounds on the degree of hydration/dehydration of SS cells, the compound-treated SS cells obtained in the preceding experiment (antisickling studies with SS cells) were evaluated with a Hemavet Cell Analyzer to determine the mean corpuscular volume (MCV).

SS cells [5] = assay: Oxygen equilibrium studies with homozygous sickle red blood cells; assay type: cell-based, human; settings: 5 mM compound; for SS cells P50: SS cells 10% hematocrit; for SS cells ΔP50: treated minus control
Description: SS cells were suspended in PBS to a final hematocrit of 10%. […] A 40 uL aliquot of this suspension was added to 4 ml Hemox buffer and subjected to oxygen equilibrium analysis (37° C.) using a Hemox-Analyzer (TCS Scientific Corp., Southampton, Pa.) (Asakura, 1979).

SS cells [6] = assay: Antisickling studies with homozygous sickle red blood cells; assay type: cell-based, human; settings: for inhibition at 5000 µM: Homo sapiens, Erythrocyte, read-out: Inhibition of sickling of SS cells
Description: Briefly, SS cells suspended in buffered saline solution, pH 7.4 (hematocrit of 10 %) were incubated at 37° C. with 4% oxygen in the presence of 5 mM compound. Aliquots (10 ul) of the suspensions were obtained after 5 hrs and fixed with 2% glutaraldehyde solution without exposure to air. Morphological analysis and percentage of SS cells that were not sickled were conducted using a computer-assisted image analysis system as described elsewhere (Hijiya, 1991).

Hb [7] = target: T1, Hb; assay: Co-crystallization of compounds with Hb, X-ray crystallography; assay type: binding; design: Purified human adult Hb in 50 mM Bis Tris buffer, pH 6.8, was prepared from discarded human blood; from tissue; host or cells: discarded human blood; Hb purified in house as in Safo and Abraham, 2003; settings: deoxy Hb
HbS [8] = target: T2, HbS; assay: HbS adduct formation, cation-exchange HPLC of hemolysate from compound-treated SS cells; assay type: cell-based; settings: 5 mM compound, HPLC of hemolysate after incubation with SS cells
Tg sickle mice = assay: In vivo antisickling effect in transgenic sickle mice exposed to hypoxia; settings: 5% oxygen
Excerpt: In vivo antisickling effect of 5-HMF was investigated using transgenic (Tg) mice that produce human Hb S. Since the blood of wild type mice has an extremely right-shifted OEC (P50 of mouse blood: 40–44 mm Hg) as compared with the OEC of human blood (P50 of AA cells: 26.5 mm Hg; SS cells: 32 mm Hg), Tg sickle mice that produce approximately equal amounts of human and mouse […] and 100% human β^s-globin were used in this study. The P50 of these mice are between 26 and 34 mm Hg depending on the percentage of mouse β-globin. We used 5% oxygen (5% O2, 95% N2), because they develop pulmonary sequestration almost exclusively upon exposure of these mice to 5% O2. […] Upon exposure to hypoxia, we determine the percentage of sickled cells in the blood as well as the survival time. […] In the hypoxia experiments, the Tg sickle mice were exposed to hypoxia for up to 1 hr; any surviving mice at 1 hr were euthanized by cervical dislocation under anesthesia. In all cases, after the mouse died, it was immediately dissected. The heart, lungs, brain, liver, spleen, and kidneys were fixed in 10% phosphate-buffered formalin. Tissue samples were embedded in paraffin according to standard methods. Sections were cut and stained by a hematoxylin-eosin solution for light microscopy.

patients with SCD = settings: cited from earlier work; for clinical toxicity: human, in vivo
[9] = cited from earlier work
[10] = 5 mM compound, P50 of treated AA cells minus P50 of control
[11] = 5 mM compound, 4% oxygen, 10% hematocrit, 5 hrs

SMILES: CCc1ccc(C=O)o1 [Compound 5EF, 5-Ethyl-2-furfuraldehyde]
- predicted antisickling activities (SS cells [1]): lie between those of FUF and 5HMF
- n50 (Hill coefficient at 50% saturation) (AA cells; 5 mM compound): 1.77 ± 0.14
- P50 (AA cells; 5 mM compound, 37° C.): 10.13 ± 0.75 mmHg
- ΔP50 (AA cells; [10]): −15.71 mmHg

SMILES: Cc1ccsc1C=O [3-Methyl-2-thiophenecarboxyaldehyde]
- n50 (Hill coefficient at 50% saturation in the presence of compound) (AA cells): 2.35
- ΔP50 = P50d − P50c (AA cells): −7.01 mmHg
- P50d (value in the presence of compound) (AA cells): 21.55 mmHg and 20.63 mmHg

SMILES: Cc1cc(C=O)cc(C)c1O [DMHB, 3,5-dimethyl-4-hydroxybenzaldehyde]
- shift of the OEC (Hb [2]): shift the OEC toward the left

SMILES: O=Cc1ccco1 [FUF, 2-furfuraldehyde]
- Sickling of SS cells (SS cells [1]; 1 mM compound, 4% oxygen): 100%
- Sickling of SS cells (SS cells [1]; 2 mM compound, 4% oxygen): 100%
- inhibition at 1000 µM (SS cells [1]; Homo sapiens, Erythrocyte, 1 mM compound, 4% oxygen, read-out: Inhibition of sickling of SS cells): 0%
- inhibition at 2000 µM (SS cells [1]; Homo sapiens, Erythrocyte, 2 mM compound, 4% oxygen, read-out: Inhibition of sickling of SS cells): 0%
- Hemolysate P50 (HbS [3]): 5.3 ± 0.6 mmHg
- Hemolysate ΔP50 (HbS [3]): −5.9 mmHg
- n50 (Hill coefficient at 50% saturation) (AA cells; 5 mM compound): 2.30 ± 0.01
- P50 (AA cells; 5 mM compound, 37° C.): 14.49 ± 0.06 mmHg
- ΔP50 (AA cells; [10]): −11.35 mmHg
- MCV (SS cells [4]; 1 mM compound): 60.3 fL
- MCV (SS cells [4]; 2 mM compound): 60.0 fL
- MCV (SS cells [4]; 5 mM compound): 62.8 fL
- changes in cell volumes of SS cells (SS cells [4]): did not result in changes in cell volumes
- SS cells P50 (SS cells [5]): 15.4 ± 1.7 mmHg
- SS cells ΔP50 (SS cells [5]): −15.8 mmHg
- Sickling of SS cells (SS cells [6]; [11]): 70%
- inhibition at 5000 µM (SS cells [6]; [11]): 30%
- compound binding in T state co-crystals (Hb [7]): only weak binding
- HbS adduct (HbS [8]): 24% and 24 ± 5.7%

SMILES: O=Cc1ccc(Br)s1 [5-Bromo-2-thiophenecarboxyaldehyde]
- n50 (Hill coefficient at 50% saturation in the presence of compound) (AA cells): 2.35
- ΔP50 = P50d − P50c (AA cells): −6.63 mmHg
- P50d (value in the presence of compound) (AA cells): 21.96 mmHg and 20.24 mmHg

SMILES: O=Cc1ccc(CO)o1 [Compound 5HMF, 5-hydroxymethyl-2-furfuraldehyde]
- Inhibition of sickling of SS cells (SS cells [1]; 1 mM compound, 4% oxygen): 13%
- Sickling of SS cells (SS cells [1]; 1 mM compound, 4% oxygen): 87%
- Inhibition of sickling of SS cells (SS cells [1]; 2 mM compound, 4% oxygen): 42%
- Sickling of SS cells (SS cells [1]; 2 mM compound, 4% oxygen): 58%
- percentage of sickled cells in the arterial blood (Tg sickle mice; 5HMF 100 mg/kg): reduced the formation of POSCs; also recorded: reduced the percentage of sickled cells
- survival of more than half of the mice (Tg sickle mice; 5HMF pretreatment): > 25 min
- survival time under hypoxia compared to control (Tg sickle mice; 5HMF pretreatment): significantly prolonged the survival time; also recorded: prolonged the survival time significantly; also recorded: about four times longer
- Hemolysate P50 (HbS [3]): 1.8 ± 0.3 mmHg
- Hemolysate ΔP50 (HbS [3]): −9.4 mmHg
- n50 (Hill coefficient at 50% saturation) (AA cells; 1 mM compound): 2.08 ± 0.14
- ΔP50 (AA cells; 1 mM compound): −6.65 mmHg
- P50 (AA cells; 1 mM compound): 19.19 ± 1.51 mmHg
- n50 (Hill coefficient at 50% saturation) (AA cells; 2 mM compound): 1.98 ± 0.08
- ΔP50 (AA cells; 2 mM compound): −10.80 mmHg
- P50 (AA cells; 2 mM compound): 15.04 ± 0.51 mmHg
- n50 (Hill coefficient at 50% saturation) (AA cells; 5 mM compound): 1.88 ± 0.06
- P50 (AA cells; 5 mM compound, 37° C.): 8.32 ± 0.40 mmHg
- ΔP50 (AA cells; [10]): −17.52 mmHg
- effect on the OEC of whole blood (AA cells): able to shift the OEC to the left
- MCV (SS cells [4]; 1 mM compound): 62.5 fL
- MCV (SS cells [4]; 2 mM compound): 61.0 fL
- MCV (SS cells [4]; 5 mM compound): 61.4 fL
- changes in cell volumes of SS cells (SS cells [4]): did not result in changes in cell volumes
- SS cells P50 (SS cells [5]): 6.0 ± 1.2 mmHg
- SS cells ΔP50 (SS cells [5]): −25.2 mmHg
- inhibition of cell sickling, times more than FUF (SS cells [6]; 5 mM): ~2.5 times
- Inhibition of sickling of SS cells (SS cells [6]; [11]): 90%
- Sickling of SS cells (SS cells [6]; [11]): 10%
- compound binding in T state co-crystals (Hb [7]): only weak binding
- HbS adduct (HbS [8]): 70% and 70 ± 10.0%

SMILES: O=Cc1c(O)cccc1OCCCCC(=O)O [Compound 12C79]
- clinical toxicity (patients with SCD): clinically non-toxic
- compound-Hb adducts (patients with SCD; intravenous infusion 40 mg/kg, patients with SCD): more than 30%

SMILES: O=Cc1ccc(O)c(C(=O)O)c1 [FSA, 5-formylsalicylic acid]
- shift of the OEC (Hb [2]): shift the OEC toward the right

SMILES: Cc1ccc(C=O)o1 [Compound 5MF, 5-Methyl-2-furfuraldehyde]
- predicted antisickling activities (SS cells [1]): lie between those of FUF and 5HMF
- n50 (Hill coefficient at 50% saturation) (AA cells; 5 mM compound): 1.70 ± 0.06
- P50 (AA cells; 5 mM compound, 37° C.): 9.68 ± 0.24 mmHg
- ΔP50 (AA cells; [10]): −16.16 mmHg

SMILES: COc1cc(C=O)ccc1O [Vanillin, vanillin, reference compound]
- acute oral LD50 ([9]; species not stated): 1580 mg/kg
- LD50 ([9]; unit taken from the 5HMF value in the same sentence): 1580 mg/kg
- n50 (Hill coefficient at 50% saturation) (AA cells; 5 mM compound): 1.98 ± 0.23
- P50 (AA cells; 5 mM compound, 37° C.): 19.06 ± 1.98 mmHg
- ΔP50 (AA cells; [10]): −6.78 mmHg
- clinical toxicity (patients with SCD): clinically non-toxic
- MCV (SS cells [4]; 5 mM compound): 61.0 fL
- SS cells P50 (SS cells [5]): 17.7 ± 2.2 mmHg
- SS cells ΔP50 (SS cells [5]): −13.5 mmHg
- Sickling of SS cells (SS cells [6]; [11]): 80%
- inhibition at 5000 µM (SS cells [6]; [11]): 20%

SMILES: CCOC(=O)C1CSC(c2ccc(CO)o2)N1 (stereo not shown) [MSDD1, 5-hydroxymethyl-2-furfural-thiazolidine-4-carboxylic acid ethyl ester]
- effect on the OEC of whole blood (AA cells): does not have effect on the OEC

SMILES: O=Cc1cc(Br)cs1 [4-Bromo-2-thiophenecarboxyaldehyde]
- n50 (Hill coefficient at 50% saturation in the presence of compound) (AA cells): 2.41
- ΔP50 = P50d − P50c (AA cells): −10.56 mmHg
- P50d (value in the presence of compound) (AA cells): 16.85 mmHg and 17.49 mmHg
